Measured values: patent publication US20230391760A1, “HETEROCYCLIC GLP-1 AGONISTS” (Gasherbrum Bio, Inc., priority 2020, published 2023)

The compounds below were run against GLP-1 Receptor (Homo sapiens, UniProt P43220) (assay: GLP-1R agonist cAMP stimulation assay (HEK293/GLP1R/CRE-LUC cells, cAMP dynamic 2 Kit)). Conditions: HEK293/CRE-Luc cell line stably expressing the GLP-1 Receptor, 30 min at 37° C.
Type: cell-based
Description: Activation of GLP-1 receptor is known to stimulate cyclic AMP (cAMP) production in cells which indicates primary coupling to the Gαs subunit of the G protein heterotrimeric complex. […] To optimize functional activity directed toward Gαs coupling, a HEK293/CRE-Luc cell line developed by HDB stably expressing the GLP-1 Receptor was used. 200×concentration of compound working solutions were prepared (Agilent Technologies Bravo) with 1/2 log serial dilution in 384-well Echo LDV plate (Labcyte, Cat #LP-0200). 50 nL/well 200× concentration of compound working solutions were moved to 384-well white low volume plate (Greiner,Cat #784075) using Labcyte ECHO550. 1×10^5 cells/mL HEK293/GLP1R/CRE-LUC(HD Biosciences) cell suspensions prepared with assay buffer[DPBS containing 0.5 mM IBMX(Sigma, Cat #15879) and 0.1% BSA (GENVIEW, Cat #FA016-100 g)], 10 uL cell suspensions were added to each well of previous generated assay plate which already contains 50 nl compound at 200×concentration using ThermoFisher Multidrop Combi (1000 cells/well). Seal the plate and incubate at 37° C. with 5% CO2 for 30 min. After incubation the cAMP assay signal was generated using cAMP dynamic 2 Kit (Cisbio). 5 μL cAMP-d2 working solution was added to each well, followed with 5 μL Anti-cAMP antibody-cryptate working solution added to each well using ThermoFisher Multidrop Combi. Incubate at room temperature for 1 hour protected from light.

GLP-1 Receptor, sequence (P43220 24-463, species assumed): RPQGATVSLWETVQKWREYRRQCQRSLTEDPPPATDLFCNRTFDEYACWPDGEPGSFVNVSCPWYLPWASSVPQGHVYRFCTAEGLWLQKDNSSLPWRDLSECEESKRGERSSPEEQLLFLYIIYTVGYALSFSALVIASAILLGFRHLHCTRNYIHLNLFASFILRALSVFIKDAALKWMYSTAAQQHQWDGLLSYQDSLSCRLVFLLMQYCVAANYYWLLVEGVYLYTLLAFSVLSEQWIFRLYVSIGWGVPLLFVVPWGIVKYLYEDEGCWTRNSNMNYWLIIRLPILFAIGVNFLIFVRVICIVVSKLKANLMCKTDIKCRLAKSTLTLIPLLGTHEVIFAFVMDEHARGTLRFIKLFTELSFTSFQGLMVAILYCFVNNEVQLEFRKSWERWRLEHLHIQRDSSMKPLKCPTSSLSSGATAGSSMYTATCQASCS

SMILES	EC50
C[C@]1(c2ccc(Cl)cc2F)Oc2cccc(C3CCN(Cc4nc5cc(-c6nnc(C(F)(F)F)[nH]6)ncc5n4C[C@@H]4CCO4)CC3)c2O1 [Compound 366a, 4-[(2S)-2-(4-chloro-2-fluorophenyl)-2-methyl-2H-1,3-benzodioxol-4-yl]-1-[(3-{[(2S)-oxetan-2-yl]methyl}-6-[5-(trifluoromethyl)-4H-1,2,4-triazol-3-yl]-3H-imidazo[4,5-c]pyridin-2-yl)methyl]piperidine]	0.012 nM
O=c1[nH]c(-c2cc3nc(CN4CCN(c5ccc(F)c(OCc6ccc(Cl)cc6F)c5)CC4)n(C[C@@H]4CCO4)c3cn2)no1 [Compound 439a, 3-{2-[(4-{3-[(4-chloro-2-fluorophenyl)methoxy]-4-fluorophenyl}piperazin-1-yl)methyl]-3-{[(2S)-oxetan-2-yl]methyl}-3H-imidazo[4,5-c]pyridin-6-yl}-4,5-dihydro-1,2,4-oxadiazol-5-one]	2.3 nM
Cc1cc(=O)[nH]c(-c2cc3nc(CN4CCC(c5cccc(OCc6ccc(Cl)cc6F)n5)CC4)n(C[C@@H]4CCO4)c3cn2)n1 [Compound 453a, 2-{2-[(4-{6-[(4-chloro-2-fluorophenyl)methoxy]pyridin-2-yl}piperidin-1-yl)methyl]-3-{[(2S)-oxetan-2-yl]methyl}-3H-imidazo[4,5-c]pyridin-6-yl}-6-methyl-3,4-dihydropyrimidin-4-one]	1.9 nM
N#Cc1ccc(COc2nccc(C3CCN(Cc4nc5cc(-c6nnc(C(F)(F)F)[nH]6)ncc5n4C[C@@H]4CCO4)CC3)n2)c(F)c1 [Compound 507a, 3-fluoro-4-{[(4-{1-[(3-{[(2S)-oxetan-2-yl]methyl}-6-[5-(trifluoromethyl)-4H-1,2,4-triazol-3-yl]-3H-imidazo[4,5-c]pyridin-2-yl)methyl]piperidin-4-yl}pyrimidin-2-yl)oxy]methyl}benzonitrile]	0.068 nM
O=c1[nH]c(-c2cnc3c(c2)nc(CN2CCC(c4cccc5c4OC[C@@H](c4ccc(Cl)cc4)O5)CC2)n3C[C@@H]2CCO2)no1 [Compound 407a, 3-[2-({4-[(2R)-2-(4-chlorophenyl)-2,3-dihydro-1,4-benzodioxin-5-yl]piperidin-1-yl}methyl)-3-{[(2S)-oxetan-2-yl]methyl}-3H-imidazo[4,5-b]pyridin-6-yl]-4,5-dihydro-1,2,4-oxadiazol-5-one]	4.5 nM
Fc1cc(Cl)ccc1COc1nc(C2CCN(Cc3nc4cc(-c5nnc(C(F)(F)F)[nH]5)ncc4n3C[C@@H]3CCO3)CC2)ncc1F [Compound 491a, 4-[(4-chloro-2-fluorophenyl)methoxy]-5-fluoro-2-{1-[(3-{[(2S)-oxetan-2-yl]methyl}-6-[5-(trifluoromethyl)-4H-1,2,4-triazol-3-yl]-3H-imidazo[4,5-c]pyridin-2-yl)methyl]piperidin-4-yl}pyrimidine]	0.057 nM
Cc1nnc(-c2cc3nc(CN4CCC(c5cccc6c5O[C@@](C)(c5ccc(Cl)cn5)O6)CC4)n(C[C@@H]4CCO4)c3nn2)[nH]1 [Compound 477a, 5-chloro-2-[(2S)-2-methyl-4-(1-{[3-(5-methyl-4H-1,2,4-triazol-3-yl)-7-{[(2S)-oxetan-2-yl]methyl}-7H-imidazo[4,5-c]pyridazin-6-yl]methyl}piperidin-4-yl)-2H-1,3-benzodioxol-2-yl]pyridine]	0.98 nM
CC1(c2ccc(Cl)cn2)Oc2cccc(C3CCN(Cc4nc5cc(-c6nnc(C(F)(F)F)[nH]6)ccc5n4CC4(C#N)CC4)CC3)c2O1 (centres unmarked) [Compound 415, 1-{[2-({4-[2-(5-chloropyridin-2-yl)-2-methyl-2H-1,3-benzodioxol-4-yl]piperidin-1-yl}methyl)-5-[5-(trifluoromethyl)-4H-1,2,4-triazol-3-yl]-1H-1,3-benzodiazol-1-yl]methyl}cyclopropane-1-carbonitrile]	0.14 nM
COCCOc1ccc(C(=O)Nc2ccc3c(c2)nc(CN2CCC(c4cccc(OCc5ccc(Cl)cc5F)n4)CC2)n3C[C@@H]2CCO2)cn1 [Compound 177a, N-{2-[(4-{6-[(4-chloro-2-fluorophenyl)methoxy]pyridin-2-yl}piperidin-1-yl)methyl]-1-{[(2S)-oxetan-2-yl]methyl}-1H-1,3-benzodiazol-5-yl}-6-(2-methoxyethoxy)pyridine-3-carboxamide]	5.9 nM
Fc1cc(Cl)ccc1COc1cc(N2CCN(Cc3nc4cc(-c5nnc(C(F)(F)F)[nH]5)nnc4n3C[C@@H]3CCO3)CC2)ccc1F [Compound 483a, 1-{3-[(4-chloro-2-fluorophenyl)methoxy]-4-fluorophenyl}-4-[(7-{[(2S)-oxetan-2-yl]methyl}-3-[5-(trifluoromethyl)-4H-1,2,4-triazol-3-yl]-7H-imidazo[4,5-c]pyridazin-6-yl)methyl]piperazine]	0.51 nM

Further compounds by falling EC50, results first:

EC50	SMILES
0.51 nM	CC1(c2ccc(Cl)cc2F)Oc2cccc(C3CCN(Cc4nc5cc(C(=O)O)ccc5n4C[C@@H]4CCO4)CC3)c2O1 (stereo partly drawn) [Compound 161a, 2-((4-(2-(4-chloro-2-fluorophenyl)-2-methylbenzo[d][1,3]dioxol-4-yl)piperidin-1-yl)methyl)-1-(((S)-oxetan-2-yl)methyl)-1H-benzo[d]imidazole-5-carboxylic acid]
0.25 nM	C[C@H](Cn1c(CN2CCC(c3cccc4c3O[C@@](C)(c3ccc(Cl)cn3)O4)CC2)nc2cc(-c3nnc(C(F)(F)F)[nH]3)ncc21)OC(F)F [Compound 476a, 5-chloro-2-[(2S)-4-[1-({3-[(2R)-2-(difluoromethoxy)propyl]-6-[5-(trifluoromethyl)-4H-1,2,4-triazol-3-yl]-3H-imidazo[4,5-c]pyridin-2-yl}methyl)piperidin-4-yl]-2-methyl-2H-1,3-benzodioxol-2-yl]pyridine]
0.15 nM	O=c1[nH]c(-c2cc3nc(CN4CCC(c5ccnc(OCc6ccc(Cl)cc6F)n5)CC4)n(C[C@@H]4CCO4)c3cn2)no1 [Compound 460a, 3-{2-[(4-{2-[(4-chloro-2-fluorophenyl)methoxy]pyrimidin-4-yl}piperidin-1-yl)methyl]-3-{[(2S)-oxetan-2-yl]methyl}-3H-imidazo[4,5-c]pyridin-6-yl}-4,5-dihydro-1,2,4-oxadiazol-5-one]
0.12 nM	Cn1cc(-c2ccc3c(c2)nc(CN2CCC(c4cccc5c4OC(C)(c4ccc(Cl)cc4F)O5)CC2)n3C[C@@H]2CCO2)nn1 (stereo partly drawn) [Compound 238a, 2-((4-(2-(4-chloro-2-fluorophenyl)-2-methylbenzo[d][1,3]dioxol-4-yl)piperidin-1-yl)methyl)-5-(1-methyl-1H-1,2,3-triazol-4-yl)-1-(((S)-oxetan-2-yl)methyl)-1H-benzo[d]imidazole]
0.098 nM	Fc1cc(Cl)ccc1COc1cc(C2=CCN(Cc3nc4cc(-c5nnc(C(F)(F)F)[nH]5)ncc4n3C[C@@H]3CCO3)CC2)ccc1F [Compound 297a, 4-{3-[(4-chloro-2-fluorophenyl)methoxy]-4-fluorophenyl}-1-[(3-{[(2S)-oxetan-2-yl]methyl}-6-[5-(trifluoromethyl)-4H-1,2,4-triazol-3-yl]-3H-imidazo[4,5-c]pyridin-2-yl)methyl]-1,2,3,6-tetrahydropyridine]
0.093 nM	CO[C@H](C)Cn1c(CN2CCC(c3cccc4c3O[C@@](C)(c3ccc(Cl)cc3F)O4)CC2)nc2cc(-c3nnc(C(F)(F)F)[nH]3)cnc21 [Compound 247b, 4-[(2S)-2-(4-chloro-2-fluorophenyl)-2-methyl-2H-1,3-benzodioxol-4-yl]-1-({3-[(2R)-2-methoxypropyl]-6-[5-(trifluoromethyl)-4H-1,2,4-triazol-3-yl]-3H-imidazo[4,5-b]pyridin-2-yl}methyl)piperidine]
0.085 nM	Fc1cc(Cl)ccc1COc1cc(N2CCN(Cc3nc4cc(-c5nnc(C(F)(F)F)[nH]5)ncc4n3C[C@@H]3CCO3)CC2)ccc1F [Compound 456a, 1-{3-[(4-chloro-2-fluorophenyl)methoxy]-4-fluorophenyl}-4-[(3-{[(2S)-oxetan-2-yl]methyl}-6-[5-(trifluoromethyl)-4H-1,2,4-triazol-3-yl]-3H-imidazo[4,5-c]pyridin-2-yl)methyl]piperazine]
0.082 nM	Cc1nnc(-c2ccc3c(c2)nc(CN2CCC(c4cccc5c4O[C@@](C)(c4ccc(C(N)=O)cc4F)O5)CC2)n3C[C@@H]2CCO2)[nH]1 [Compound 410b, 3-fluoro-4-[(2S)-2-methyl-4-(1-{[5-(5-methyl-4H-1,2,4-triazol-3-yl)-1-{[(2S)-oxetan-2-yl]methyl}-1H-1,3-benzodiazol-2-yl]methyl}piperidin-4-yl)-2H-1,3-benzodioxol-2-yl]benzamide]
0.066 nM	CSc1nnc(-c2ccc3c(c2)nc(CN2CCC(c4cccc5c4OC(C)(c4ccc(Cl)cc4F)O5)CC2)n3C[C@@H]2CCO2)[nH]1 (stereo partly drawn) [Compound 252a, 2-({4-[2-(4-chloro-2-fluorophenyl)-2-methyl-2H-1,3-benzodioxol-4-yl]piperidin-1-yl}methyl)-5-[5-(methylsulfanyl)-4H-1,2,4-triazol-3-yl]-1-{[(2S)-oxetan-2-yl]methyl}-1H-1,3-benzodiazole]
0.025 nM	CC1(c2ccc(Cl)cc2F)Oc2cc(F)cc(C3CCN(Cc4nc5cc(-c6nnc(C(F)(F)F)[nH]6)ncc5n4C[C@@H]4CCO4)CC3)c2O1 (stereo partly drawn) [Compound 441a, 4-[2-(4-chloro-2-fluorophenyl)-6-fluoro-2-methyl-2H-1,3-benzodioxol-4-yl]-1-[(3-{[(2S)-oxetan-2-yl]methyl}-6-[5-(trifluoromethyl)-4H-1,2,4-triazol-3-yl]-3H-imidazo[4,5-c]pyridin-2-yl)methyl]piperidine]
